pIC50: −log10 of the molar value.
Legend:
Aurora kinase B-A = Aurora kinase B-A (Xenopus laevis, UniProt Q6DE08); experiment: Inhibition of Xenopus laevis Aurora kinase B/INCEP complex using gamma-[32P]ATP incubated for 1 hr by autoradiography
Aurora kinase B = Aurora kinase B (Homo sapiens, UniProt Q96GD4); experiment: Inhibition of human Aurora kinase B/INCEP complex expressed in Escherichia coli BL21 (DE3) using gamma-[32P]ATP incubated for 1 hr by autoradiography
Aurora kinase A = target: T1, Aurora kinase A (Homo sapiens, UniProt O14965)
T1 sequence (O14965 whole entry): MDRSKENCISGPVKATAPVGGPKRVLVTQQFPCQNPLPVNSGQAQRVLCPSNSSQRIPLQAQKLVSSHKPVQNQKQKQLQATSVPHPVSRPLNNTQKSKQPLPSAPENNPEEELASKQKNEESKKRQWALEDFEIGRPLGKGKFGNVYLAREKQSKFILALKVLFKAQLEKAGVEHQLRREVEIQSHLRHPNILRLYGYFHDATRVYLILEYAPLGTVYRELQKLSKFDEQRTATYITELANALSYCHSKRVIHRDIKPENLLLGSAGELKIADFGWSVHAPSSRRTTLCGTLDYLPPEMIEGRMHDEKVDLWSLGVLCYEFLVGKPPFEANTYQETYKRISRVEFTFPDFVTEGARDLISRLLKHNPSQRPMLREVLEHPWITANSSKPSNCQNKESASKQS
Description: Inhibition of human Aurora kinase A/TPX2 complex using gamma-[32P]ATP incubated for 1 hr by autoradiography

Aurora kinase B-A, sequence (Q6DE08 whole entry): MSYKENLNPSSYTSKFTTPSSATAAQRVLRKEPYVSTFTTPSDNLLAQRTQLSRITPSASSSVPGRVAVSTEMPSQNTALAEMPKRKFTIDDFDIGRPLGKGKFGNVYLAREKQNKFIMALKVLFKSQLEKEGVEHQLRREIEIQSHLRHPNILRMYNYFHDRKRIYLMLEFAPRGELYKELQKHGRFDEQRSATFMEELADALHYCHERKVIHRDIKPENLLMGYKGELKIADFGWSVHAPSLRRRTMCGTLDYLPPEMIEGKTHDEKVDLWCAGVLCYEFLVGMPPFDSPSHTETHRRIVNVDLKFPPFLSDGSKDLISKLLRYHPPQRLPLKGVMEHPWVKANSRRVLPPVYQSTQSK
Aurora kinase B, sequence (Q96GD4 whole entry): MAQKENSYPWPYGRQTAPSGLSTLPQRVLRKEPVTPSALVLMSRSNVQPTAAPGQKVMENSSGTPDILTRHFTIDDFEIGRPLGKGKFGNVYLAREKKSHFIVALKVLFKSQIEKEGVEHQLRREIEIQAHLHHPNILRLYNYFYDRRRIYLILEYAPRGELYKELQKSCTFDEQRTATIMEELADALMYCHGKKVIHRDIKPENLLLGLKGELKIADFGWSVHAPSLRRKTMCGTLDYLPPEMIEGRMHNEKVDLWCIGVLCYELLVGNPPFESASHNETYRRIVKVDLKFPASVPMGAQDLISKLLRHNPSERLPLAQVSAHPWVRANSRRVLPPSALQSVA

## COc1cc2c(Nc3ccc(NC(=O)c4ccccc4)cc3)ncnc2cc1OCCCN1CCOCC1
Aurora kinase B-A
  pIC50: 7.35

## CCS(=O)(=O)Nc1ccc2c(c1)/C(=C(/Nc1ccc(CN3CCCCC3)cc1)c1ccccc1)C(=O)N2 [HESPERADIN]
Aurora kinase B
  pIC50: 8.52
Aurora kinase A
  pIC50: 7.96
Aurora kinase B-A
  pIC50: 8.52

## Cc1cc(Nc2cc(N3CCN(C)CC3)nc(Sc3ccc(NC(=O)C4CC4)cc3)n2)[nH]n1 [TOZASERTIB]
Aurora kinase B-A
  pIC50: 7.72
